In patent US20240376151A1, “STAPLED PEPTIDES AND METHODS THEREOF” (FOG PHARMACEUTICALS, INC., priority 2022, published 2024):
Like-named read-outs stand apart in the source and are kept apart here. Numbered stars: 1 amine (or outer) side, 2 acyl side, 3 side chain; on linkers, the order of the positions; unused ones are H or OH. Bridge positions count the residues as written; N and C are the ends. Peptide text beside a SMILES is read from it. * marks the point of attachment. Phenylene(1,4-NHCOCH2)2 = O=C(C[*:1])Nc1ccc(NC(=O)C[*:2])cc1; 5FAM = O=C1OC2(c3ccc(O)cc3Oc3cc(O)ccc32)c2ccc(C(=O)*)cc21

Legend:
Expi293 cells [1] = assay: Measurement of the Cell Association of Helicons (mass spectrometry quantification in cells after treatment and wash); type: cell-based; details: percentage of Helicons in cells after treatment and wash, 22 hours, n = 2, mean ± SD
Method: All samples were analyzed using mass spectrometry.

Expi293 cells [2] = assay: CellTiter-Glo cell health (ATP levels) during cell association assay; type: cell-based; details: reflective of cell health, luminescence Tfinal (22 hours) / Tinitial
beta-catenin = target: T1, beta-catenin (Homo sapiens, UniProt P35222); assay: KD (μM, SPR)
T1 construct: 10 nM full-length β-catenin (Uniprot ID P35222); 6×His-thrombin-T7-TEV (N); made in house; host or cells: E. coli BL21 (DE3) pLysS
T1 sequence (P35222 2-781 limits assumed): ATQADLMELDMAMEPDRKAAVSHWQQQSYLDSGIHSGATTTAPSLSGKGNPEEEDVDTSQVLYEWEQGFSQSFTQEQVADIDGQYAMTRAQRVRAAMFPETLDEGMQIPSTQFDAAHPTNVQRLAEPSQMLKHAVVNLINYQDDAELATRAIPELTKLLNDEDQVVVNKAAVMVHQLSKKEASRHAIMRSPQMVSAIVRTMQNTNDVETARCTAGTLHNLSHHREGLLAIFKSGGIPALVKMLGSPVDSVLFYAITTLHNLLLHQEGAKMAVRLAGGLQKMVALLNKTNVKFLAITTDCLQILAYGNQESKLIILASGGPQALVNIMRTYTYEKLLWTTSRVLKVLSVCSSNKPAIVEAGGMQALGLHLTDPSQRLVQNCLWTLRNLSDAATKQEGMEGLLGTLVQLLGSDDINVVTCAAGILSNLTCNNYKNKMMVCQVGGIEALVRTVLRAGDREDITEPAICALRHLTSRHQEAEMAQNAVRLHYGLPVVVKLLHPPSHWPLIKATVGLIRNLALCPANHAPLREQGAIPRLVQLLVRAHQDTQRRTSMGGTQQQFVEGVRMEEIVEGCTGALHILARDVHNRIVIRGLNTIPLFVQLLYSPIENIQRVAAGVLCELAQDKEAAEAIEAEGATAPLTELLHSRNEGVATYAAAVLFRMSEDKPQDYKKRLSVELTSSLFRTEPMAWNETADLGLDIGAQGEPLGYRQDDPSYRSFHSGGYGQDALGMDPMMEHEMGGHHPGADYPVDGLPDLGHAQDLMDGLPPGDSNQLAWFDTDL

β-catenin:MDM4 complex = target: T2, β-catenin:MDM4 complex (Homo sapiens, UniProt O15151+P35222, C17S); assay: FP analysis of the β-catenin:MDM4 complex; type: biochemical; details: direct FP assay
T2 construct: 6×His-yBBr-TEV (N); 6×His-yBBr-3C (N, cleaved yes); made in house; host or cells: E. coli BL21 (DE3) pLysS (beta-catenin); E. coli BL21 (DE3) (MDM4)
T2 sequence (P35222 134-665): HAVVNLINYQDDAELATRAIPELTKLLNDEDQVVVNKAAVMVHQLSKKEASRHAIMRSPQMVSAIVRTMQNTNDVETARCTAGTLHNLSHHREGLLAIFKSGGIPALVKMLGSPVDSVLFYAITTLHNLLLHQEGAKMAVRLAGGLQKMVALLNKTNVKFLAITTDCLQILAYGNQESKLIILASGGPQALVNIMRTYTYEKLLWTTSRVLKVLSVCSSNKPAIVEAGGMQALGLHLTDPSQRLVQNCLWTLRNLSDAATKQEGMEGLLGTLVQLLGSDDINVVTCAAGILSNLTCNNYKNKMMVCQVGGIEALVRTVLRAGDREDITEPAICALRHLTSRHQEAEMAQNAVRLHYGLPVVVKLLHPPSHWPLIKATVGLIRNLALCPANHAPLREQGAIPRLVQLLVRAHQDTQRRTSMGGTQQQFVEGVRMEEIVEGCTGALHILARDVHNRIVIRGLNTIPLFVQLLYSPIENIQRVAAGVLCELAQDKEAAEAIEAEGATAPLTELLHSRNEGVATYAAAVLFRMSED
T2 sequence (O15151 14-111 C17S): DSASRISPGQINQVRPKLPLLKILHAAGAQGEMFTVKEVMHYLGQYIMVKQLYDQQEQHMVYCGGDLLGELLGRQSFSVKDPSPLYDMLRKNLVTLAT

PD-L1 = PD-L1 (Homo sapiens, UniProt Q9NZQ7)
Chain of PD-L1 (Q9NZQ7 18-239): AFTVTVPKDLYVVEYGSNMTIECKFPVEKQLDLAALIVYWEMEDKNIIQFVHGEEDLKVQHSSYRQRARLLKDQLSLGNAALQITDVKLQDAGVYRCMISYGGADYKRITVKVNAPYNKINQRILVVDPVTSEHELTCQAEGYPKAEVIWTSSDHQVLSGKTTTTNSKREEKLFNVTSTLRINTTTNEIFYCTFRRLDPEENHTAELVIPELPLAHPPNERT

Molecule | Helicon in cells ± SD (%) (Expi293 cells [1]) | CellTiter-Glo fold change ± SD (Expi293 cells [2]) | other results
CCCC[C@H](NC(=O)[C@@H](NC(C)=O)C(C)C)C(=O)N[C@@H](CCC(N)=O)C(=O)N[C@]1(C)CCCCCCC=CCCC[C@@](C)(C(=O)N[C@@H](Cc2c[nH]cn2)C(=O)N[C@@H](Cc2ccc(O)cc2)C(=O)N[C@H](C(N)=O)C(C)C)NC(=O)[C@H]([C@@H](C)CC)NC(=O)[C@H](Cc2ccccc2)NC(=O)[C@H](C)NC(=O)[C@H](C)NC(=O)[C@H](CCC(N)=O)NC(=O)[C@H](Cc2ccc(O)cc2)NC1=O (single isomer, unassigned) [FP07872, Ac-Val-nLeu-Gln-R8-Tyr-Gln-Ala-Ala-Phe-Ile-S5-His-Tyr-Val-NH2] | 11.7 ± 1.6% | 1.1 ± 0.02 | 
CC[C@H](C)[C@H](NC(=O)[C@H](Cc1ccc(O)cc1)NC(=O)[C@H](CCC(N)=O)NC(=O)[C@]1(C)CCCC=CCCCCCC[C@@](C)(NC(=O)[C@H](Cc2c[nH]cn2)NC(=O)[C@@H](NC(=O)[C@@H](NC(C)=O)[C@@H](C)CC)[C@@H](C)CC)C(=O)N[C@@H](Cc2ccc(O)cc2)C(=O)N[C@@H](CCC(=O)O)C(=O)N[C@@H](C)C(=O)N[C@@H](C)C(=O)N[C@@H](Cc2ccccc2)C(=O)N[C@@H](Cc2ccccc2)C(=O)N1)C(N)=O (single isomer, unassigned) [FP08011, Ac-Ile-Ile-His-R8-Tyr-Glu-Ala-Ala-Phe-Phe-S5-Gln-Tyr-Ile-NH2] | 6.5 ± 0.5% | 1.2 ± 0.01 | 
CC[C@H](C)[C@H](NC(=O)[C@H](Cc1ccc(O)cc1)NC(=O)[C@H](CCC(N)=O)NC(=O)[C@]1(C)CCCC=CCCCCCC[C@@](C)(NC(=O)[C@H](Cc2c[nH]cn2)NC(=O)[C@@H](NC(=O)[C@@H](NC(C)=O)[C@@H](C)CC)[C@@H](C)CC)C(=O)N[C@@H](Cc2ccc(O)cc2)C(=O)N[C@@H](CCC(=O)O)C(=O)N[C@@H](C)C(=O)N[C@@H](C)C(=O)N[C@@H](Cc2ccccc2)C(=O)N[C@@H](Cc2ccccc2)C(=O)N1)C(N)=O (single isomer, unassigned) [FP08012, Ac-Ile-Ile-His-R8-Tyr-Glu-Ala-Ala-Phe-Phe-S5-Gln-Tyr-Ile-NH2] | 5.4 ± 0.9% | 1.1 ± 0.04 | 
CCCC[C@H](NC(=O)[C@H](Cc1ccc(O)cc1)NC(=O)[C@H](CCC(N)=O)NC(=O)[C@]1(C)CCCC=CCCCCCC[C@@](C)(NC(=O)[C@H](CCC(=O)O)NC(=O)[C@H](CC(C)C)NC(=O)[C@@H](NC(C)=O)[C@@H](C)CC)C(=O)N[C@@H](Cc2ccc(O)cc2)C(=O)N[C@@H](CCC(=O)O)C(=O)N[C@@H](C)C(=O)N[C@@H](C)C(=O)N[C@@H](Cc2ccccc2)C(=O)N[C@@H](CCC(=O)O)C(=O)N1)C(N)=O (single isomer, unassigned) [FP08017, Ac-Ile-Leu-Glu-R8-Tyr-Glu-Ala-Ala-Phe-Glu-S5-Gln-Tyr-nLeu-NH2] | 0.6 ± 0.1% | 1.2 ± 0.01 | 
CCCC[C@H](NC(=O)[C@H](Cc1ccc(O)cc1)NC(=O)[C@H](CCC(N)=O)NC(=O)[C@]1(C)CCCC=CCCCCCC[C@@](C)(NC(=O)[C@H](CCC(=O)O)NC(=O)[C@H](CC(C)C)NC(=O)[C@@H](NC(C)=O)[C@@H](C)CC)C(=O)N[C@@H](Cc2ccc(O)cc2)C(=O)N[C@@H](CCC(=O)O)C(=O)N[C@@H](C)C(=O)N[C@@H](C)C(=O)N[C@@H](Cc2ccccc2)C(=O)N[C@@H](CCC(=O)O)C(=O)N1)C(N)=O (single isomer, unassigned) [FP08018, Ac-Ile-Leu-Glu-R8-Tyr-Glu-Ala-Ala-Phe-Glu-S5-Gln-Tyr-nLeu-NH2] | 1.0 ± 0.1% | 1.1 ± 0.05 | 
CC(=O)N[C@@H](CC(C)C)C(=O)N[C@H](C(=O)N[C@@H](Cc1ccccc1)C(=O)N[C@]1(C)CCCCCCC=CCCC[C@@](C)(C(=O)N[C@@H](CO)C(=O)N[C@@H](C)C(=O)N[C@@H](C)C(N)=O)NC(=O)[C@H](CC2CCC2)NC(=O)[C@H](CCC(N)=O)NC(=O)[C@H](C)NC(=O)[C@H](Cc2c[nH]c3ccccc23)NC(=O)[C@H](Cc2ccc(O)cc2)NC(=O)[C@H](CCC(=O)O)NC1=O)[C@@H](C)O [FP01413, Ac-Leu-Thr-Phe-R8-Glu-Tyr-Trp-Ala-Gln-Cba-S5-Ser-Ala-Ala-NH2, reference compound] | 3.7 ± 0.4% | 1.2 ± 0.07 | 
CC(C)C[C@H](NC(=O)[C@H](C)NC(=O)CNC(=O)[C@H](CCCCN)NC(=O)[C@H](CCCNC(=N)N)NC(=O)[C@H](C)NC(=O)[C@H](Cc1ccccc1)NC(=O)[C@H](CCCNC(=N)N)NC(=O)[C@H](CCC(N)=O)NC(=O)c1ccc2c(c1)C(=O)OC21c2ccc(O)cc2Oc2cc(O)ccc21)C(=O)N[C@@H](CCCNC(=N)N)C(=O)N[C@@H](CCC(N)=O)C(=O)N[C@@H](CCCCN)C(=O)N[C@@H](CC(N)=O)C(=O)N[C@H](C(N)=O)C(C)C [FP47831, reference compound] (5FAM-QRFARKGALRQKNV-NH2) | 0.0 ± 0.0% | 1.1 ± 0.02 | 
CC(=O)N[C@@H](CC(=O)O)C(=O)N1CCC[C@H]1C(=O)N[C@@H](C)C(=O)N[C@@H](C)C(=O)N[C@@H](Cc1c[nH]cn1)C(=O)N[C@@H](CCCNC(=N)N)C(=O)N[C@H]1CSCC(=O)Nc2ccc(cc2)NC(=O)CSC[C@@H](C(=O)N[C@@H](CCC(=O)O)C(=O)N[C@@H](CC(C)C)C(=O)N[C@H](C(N)=O)C(C)C)NC(=O)[C@H](Cc2c[nH]cn2)NC(=O)[C@H](CC(C)C)NC(=O)[C@H](C)NC(=O)[C@H](C)NC(=O)[C@H](Cc2c[nH]c3ccccc23)NC(=O)[C@H](CCC(=O)O)NC1=O [FP49250] (Ac-DPAAHRCEWAALHCELV-NH2; linker 7-14 via Phenylene(1,4-NHCOCH2)2) |  |  | Kd (beta-catenin): 1.4 ± 0.55 µM
CC[C@H](C)[C@H](NC(=O)[C@H](C)NC(=O)[C@H](CCC(N)=O)NC(C)=O)C(=O)N[C@H]1CSCC(=O)Nc2ccc(cc2)NC(=O)CSC[C@@H](C(=O)N[C@@H](CC(C)C)C(=O)N[C@@H](C)C(=O)N[C@@H](CC(=O)O)C(=O)N[C@@H](CC(=O)O)C(=O)N[C@@H](Cc2c[nH]c3ccccc23)C(=O)N[C@H](C(N)=O)[C@@H](C)O)NC(=O)[C@H](CCSC)NC(=O)[C@H](Cc2c[nH]c3ccccc23)NC(=O)[C@H](C)NC(=O)[C@H](C)NC(=O)[C@H](CCC(N)=O)NC(=O)[C@H](Cc2ccccc2)NC1=O [Helicon H331] |  |  | promotion of interaction between MDM4 and β-catenin (β-catenin:MDM4 complex): not between MDM4 and β-catenin
CC[C@H](C)[C@H](NC(=O)[C@H](Cc1ccccc1)NC(=O)[C@H](Cc1ccc(O)cc1)NC(=O)[C@H](CC(C)C)NC(=O)[C@@H]1CSCC(=O)Nc2ccc(cc2)NC(=O)CSC[C@H](NC(=O)[C@H](CC(=O)O)NC(=O)[C@H](CCCNC(=N)N)NC(=O)[C@H](C)NC(=O)[C@H](CC(N)=O)NC(=O)[C@H](CCC(=O)O)NC(=O)[C@H](CO)NC(=O)[C@@H]2CCCN2C(C)=O)C(=O)N[C@@H](Cc2ccccc2)C(=O)N[C@@H](Cc2c[nH]c3ccccc23)C(=O)N[C@@H](C)C(=O)N[C@@H](C)C(=O)N[C@@H](Cc2c[nH]c3ccccc23)C(=O)N[C@@H](CC(=O)O)C(=O)N1)C(=O)N[C@@H](Cc1ccc(O)cc1)C(=O)N[C@@H](CCC(N)=O)C(N)=O [Helicon H333] |  |  | promotion of interaction between MDM4 and β-catenin (β-catenin:MDM4 complex): not between MDM4 and β-catenin
Ac-[5FAM]-Lys-Gln-Ser-Gln-Gln-Thr-Phe-R8-Asn-Leu-Trp-Arg-Leu-Leu-S5-Gln-Asn-NH2 (KQSQQTFXNLWRLLXQN; Ac, 5FAM, R8-S5 staple, C-terminal amide; SITE 1 Acetylated 5-Carboxyfluorescein modified residue; SITE 8 (R)-2-amino-2-methyldec-9-enoic acid, useful for stapling/stapled with another amino acid residue comprising an olefin group to form a staple through the olefin group; SITE 15 (S)-2-amino-2-methylhept-6-enoic acid, useful for stapling/stapled with another amino acid residue comprising an olefin group to form a staple through the olefi) [FP47839, reference compound] | 2.1 ± 0.1% | 1.3 ± 0.01 | 
DPAAADCQWAAFLCRVY |  |  | phage screen counts, Target Concentration 10 (PD-L1; PD-L1, target concentration 10): 0; phage screen counts, Target Concentration 30 (PD-L1; PD-L1, target concentration 30): 0; phage screen counts, Target Concentration 100 (PD-L1; PD-L1, target concentration 100): 12; phage screen counts, Target Concentration 300 (PD-L1; PD-L1, target concentration 300): 47; phage screen counts, Target Concentration 1000 (PD-L1; PD-L1, target concentration 1000, first column): 60; phage screen counts, Target Concentration 1000 (PD-L1; PD-L1, target concentration 1000, second column): 62
